Species on record: Rattus norvegicus
Assay: DrugMatrix - Regimen: Daily Repeat
Format: toxicity, organism-based, Sprague-Dawley
Set-up: regimen Daily Repeat, gender Male, age 6-8 weeks
Conditions: in vivo, po, route oral GAVAGE, vehicle .5 % CMC; for ABSOLUTE BASOPHIL / ABSOLUTE EOSINOPHIL / ABSOLUTE LYMPHOCYTE / ABSOLUTE MONOCYTE / ABSOLUTE SEGMENTED NEUTROPHIL / BASOPHIL / EOSINOPHIL / ERYTHROCYTE COUNT / HEMATOCRIT / HEMOGLOBIN / LEUKOCYTE COUNT / LYMPHOCYTE / MEAN CORPUSCULAR HEMOGLOBIN / MEAN CORPUSCULAR HEMOGLOBIN CONCENTRATION / MEAN CORPUSCULAR VOLUME / MONOCYTE / NEUTROPHIL / NUCLEATED RED BLOOD CELLS / PLATELET COUNT: tissue Blood; for ALANINE AMINOTRANSFERASE / ALBUMIN / ALKALINE PHOSPHATASE / ASPARTATE AMINOTRANSFERASE / BLOOD UREA NITROGEN / CARBON DIOXIDE / CHLORIDE / CHOLESTEROL / CREATINE PHOSPHOKINASE / CREATININE / GLUCOSE / LACTATE DEHYDROGENASE / LIPASE / PHOSPHORUS / POTASSIUM / SODIUM / TOTAL BILIRUBIN / TOTAL PROTEIN / URIC ACID: tissue Plasma
[1] = 60 mg/kg, 72 h, dose level Low, time 3 day
[2] = 60 mg/kg, 120 h, dose level Low, time 5 day
[3] = 435 mg/kg, 72 h, dose level High, time 3 day
[4] = 435 mg/kg, 120 h, dose level High, time 5 day

## CCCCCCCCNC(C)C(O)c1ccc(SC(C)C)cc1 (configuration not stated) [SULOCTIDIL]
[1]
  ABSOLUTE BASOPHIL: 0 CELLS/uL
  ABSOLUTE EOSINOPHIL: 0 CELLS/uL
  ABSOLUTE LYMPHOCYTE: 12874.67 CELLS/uL
  ABSOLUTE MONOCYTE: 326.33 CELLS/uL
  ABSOLUTE SEGMENTED NEUTROPHIL: 2365.67 CELLS/uL
  BASOPHIL: 0%
  EOSINOPHIL: 0%
  ERYTHROCYTE COUNT: 5.66 x10E6/uL
  HEMATOCRIT: 34.83%
  HEMOGLOBIN: 13.2 G/DL
  LEUKOCYTE COUNT: 15.57 x10E3/uL
  LYMPHOCYTE: 81.33%
  MEAN CORPUSCULAR HEMOGLOBIN: 23.33 pg
  MEAN CORPUSCULAR HEMOGLOBIN CONCENTRATION: 37.93 G/DL
  MEAN CORPUSCULAR VOLUME: 61.57 fL
  MONOCYTE: 2.33%
  NEUTROPHIL: 16.33%
  NUCLEATED RED BLOOD CELLS: 0 /100WBC
  PLATELET COUNT: 1204 x10E3/uL
  ALANINE AMINOTRANSFERASE: 56.67 u/L
  ALBUMIN: 4.23 G/DL
  ALKALINE PHOSPHATASE: 425.33 u/L
  ASPARTATE AMINOTRANSFERASE: 91.67 u/L
  BLOOD UREA NITROGEN: 18 mg/dL
  CARBON DIOXIDE: 25 mmol/L
  CHLORIDE: 101.33 MEQ/L
  CHOLESTEROL: 80 mg/dL
  CREATINE PHOSPHOKINASE: 410.67 u/L
  CREATININE: 0.23 mg/dL
  GLUCOSE: 140.33 mg/dL
  LACTATE DEHYDROGENASE: 416.33 u/L
  LIPASE: 10.33 u/L
  PHOSPHORUS: 14.3 mg/dL
  POTASSIUM: 5.93 MEQ/L
  SODIUM: 145.47 MEQ/L
  TOTAL BILIRUBIN: 0.17 mg/dL
  TOTAL PROTEIN: 6.27 G/DL
  URIC ACID: 1.4 mg/dL
[2]
  ABSOLUTE BASOPHIL: 0 CELLS/uL
  ABSOLUTE EOSINOPHIL: 0 CELLS/uL
  ABSOLUTE LYMPHOCYTE: 10938.33 CELLS/uL
  ABSOLUTE MONOCYTE: 387.67 CELLS/uL
  ABSOLUTE SEGMENTED NEUTROPHIL: 1740.67 CELLS/uL
  BASOPHIL: 0%
  EOSINOPHIL: 0%
  ERYTHROCYTE COUNT: 5.48 x10E6/uL
  HEMATOCRIT: 33.37%
  HEMOGLOBIN: 13.03 G/DL
  LEUKOCYTE COUNT: 13.07 x10E3/uL
  LYMPHOCYTE: 83.67%
  MEAN CORPUSCULAR HEMOGLOBIN: 23.83 pg
  MEAN CORPUSCULAR HEMOGLOBIN CONCENTRATION: 39.1 G/DL
  MEAN CORPUSCULAR VOLUME: 61.07 fL
  MONOCYTE: 3%
  NEUTROPHIL: 13.33%
  NUCLEATED RED BLOOD CELLS: 0 /100WBC
  PLATELET COUNT: 1209.67 x10E3/uL
  ALANINE AMINOTRANSFERASE: 49.33 u/L
  ALBUMIN: 4.03 G/DL
  ALKALINE PHOSPHATASE: 405.67 u/L
  ASPARTATE AMINOTRANSFERASE: 76 u/L
  BLOOD UREA NITROGEN: 16.67 mg/dL
  CARBON DIOXIDE: 29.33 mmol/L
  CHLORIDE: 98.67 MEQ/L
  CHOLESTEROL: 65.67 mg/dL
  CREATINE PHOSPHOKINASE: 223 u/L
  CREATININE: 0.21 mg/dL
  GLUCOSE: 141.33 mg/dL
  LACTATE DEHYDROGENASE: 112 u/L
  LIPASE: 9.67 u/L
  PHOSPHORUS: 13.63 mg/dL
  POTASSIUM: 6.46 MEQ/L
  SODIUM: 145.77 MEQ/L
  TOTAL BILIRUBIN: 0.1 mg/dL
  TOTAL PROTEIN: 5.97 G/DL
  URIC ACID: 1.43 mg/dL
[3]
  ABSOLUTE BASOPHIL: 0 CELLS/uL
  ABSOLUTE EOSINOPHIL: 0 CELLS/uL
  ABSOLUTE LYMPHOCYTE: 12119.33 CELLS/uL
  ABSOLUTE MONOCYTE: 277.33 CELLS/uL
  ABSOLUTE SEGMENTED NEUTROPHIL: 1536.67 CELLS/uL
  BASOPHIL: 0%
  EOSINOPHIL: 0%
  ERYTHROCYTE COUNT: 5.33 x10E6/uL
  HEMATOCRIT: 33.43%
  HEMOGLOBIN: 12.9 G/DL
  LEUKOCYTE COUNT: 13.93 x10E3/uL
  LYMPHOCYTE: 87%
  MEAN CORPUSCULAR HEMOGLOBIN: 24.23 pg
  MEAN CORPUSCULAR HEMOGLOBIN CONCENTRATION: 38.6 G/DL
  MEAN CORPUSCULAR VOLUME: 62.83 fL
  MONOCYTE: 2%
  NEUTROPHIL: 11%
  NUCLEATED RED BLOOD CELLS: 0 /100WBC
  PLATELET COUNT: 1170.67 x10E3/uL
  ALANINE AMINOTRANSFERASE: 123 u/L
  ALBUMIN: 4.1 G/DL
  ALKALINE PHOSPHATASE: 384.67 u/L
  ASPARTATE AMINOTRANSFERASE: 116 u/L
  BLOOD UREA NITROGEN: 16 mg/dL
  CARBON DIOXIDE: 24.67 mmol/L
  CHLORIDE: 102 MEQ/L
  CHOLESTEROL: 71.33 mg/dL
  CREATINE PHOSPHOKINASE: 478.67 u/L
  CREATININE: 0.2 mg/dL
  GLUCOSE: 126.67 mg/dL
  LACTATE DEHYDROGENASE: 279.67 u/L
  LIPASE: 10.67 u/L
  PHOSPHORUS: 11.9 mg/dL
  POTASSIUM: 5.78 MEQ/L
  SODIUM: 145.13 MEQ/L
  TOTAL BILIRUBIN: 0.1 mg/dL
  TOTAL PROTEIN: 5.8 G/DL
  URIC ACID: 1.2 mg/dL
[4]
  ABSOLUTE BASOPHIL: 0 CELLS/uL
  ABSOLUTE EOSINOPHIL: 49.33 CELLS/uL
  ABSOLUTE LYMPHOCYTE: 11875.33 CELLS/uL
  ABSOLUTE MONOCYTE: 141.33 CELLS/uL
  ABSOLUTE SEGMENTED NEUTROPHIL: 1867.33 CELLS/uL
  BASOPHIL: 0%
  EOSINOPHIL: 0.33%
  ERYTHROCYTE COUNT: 6 x10E6/uL
  HEMATOCRIT: 36.07%
  HEMOGLOBIN: 13.93 G/DL
  LEUKOCYTE COUNT: 13.93 x10E3/uL
  LYMPHOCYTE: 85.33%
  MEAN CORPUSCULAR HEMOGLOBIN: 23.27 pg
  MEAN CORPUSCULAR HEMOGLOBIN CONCENTRATION: 38.67 G/DL
  MEAN CORPUSCULAR VOLUME: 60.1 fL
  MONOCYTE: 1%
  NEUTROPHIL: 13.33%
  NUCLEATED RED BLOOD CELLS: 0 /100WBC
  PLATELET COUNT: 1140 x10E3/uL
  ALANINE AMINOTRANSFERASE: 337 u/L
  ALBUMIN: 3.63 G/DL
  ALKALINE PHOSPHATASE: 249.33 u/L
  ASPARTATE AMINOTRANSFERASE: 188 u/L
  BLOOD UREA NITROGEN: 13.67 mg/dL
  CARBON DIOXIDE: 25 mmol/L
  CHLORIDE: 105 MEQ/L
  CHOLESTEROL: 25 mg/dL
  CREATINE PHOSPHOKINASE: 1012.33 u/L
  CREATININE: 0.12 mg/dL
  GLUCOSE: 128.67 mg/dL
  LACTATE DEHYDROGENASE: 213 u/L
  LIPASE: 8.67 u/L
  PHOSPHORUS: 10.37 mg/dL
  POTASSIUM: 5.67 MEQ/L
  SODIUM: 144.2 MEQ/L
  TOTAL BILIRUBIN: 0.1 mg/dL
  TOTAL PROTEIN: 5.1 G/DL
  URIC ACID: 1.23 mg/dL

Reference: ChEMBL document CHEMBL3885881, “DrugMatrix”
